Laboratory results taken from the NIST ThermoML archive (doi:10.1016/j.tca.2012.11.015).
Numbers after ± are expanded uncertainties.

Assay: molar heat capacity at constant pressure
Conditions: 101.33 kPa, Crystal, Small sample (50 mg) DSC

[F-].[F-].[F-].[F-].[Li+].[Lu+3] [lithium lutetium fluoride]
Conditions	molar heat capacity at constant pressure [J/K/mol]
319.1 K	130.85 ± 2.6
320.6 K	131.02 ± 2.6
322.3 K	131.32 ± 2.6
324.2 K	132.25 ± 2.6
326.3 K	132.67 ± 2.6
328.5 K	133 ± 2.7
330.9 K	133.72 ± 2.7
333.4 K	133.98 ± 2.7
336 K	134.52 ± 2.7
338.8 K	134.79 ± 2.7
341.6 K	135.17 ± 2.7
344.6 K	135.52 ± 2.7
347.6 K	135.82 ± 2.7
350.6 K	136.23 ± 2.7
353.7 K	136.42 ± 2.7
356.9 K	136.86 ± 2.7
360.1 K	137.1 ± 2.7
363.4 K	137.35 ± 2.8
366.6 K	137.71 ± 2.8
369.9 K	138.05 ± 2.8
373.2 K	138.18 ± 2.8
376.4 K	138.33 ± 2.8
379.7 K	138.6 ± 2.8
382.9 K	138.79 ± 2.8
386.1 K	139.07 ± 2.8
389.3 K	139.36 ± 2.8
392.5 K	139.51 ± 2.8
395.7 K	139.75 ± 2.8
398.8 K	140.02 ± 2.8
401.9 K	140.28 ± 2.8
405 K	140.35 ± 2.8
408.1 K	140.55 ± 2.8
411.1 K	140.85 ± 2.8
414.1 K	141 ± 2.8
417.1 K	141.21 ± 2.8
420.1 K	141.55 ± 2.8
423.1 K	141.68 ± 2.8
426 K	141.88 ± 2.8
428.9 K	142.09 ± 2.8
431.8 K	142.34 ± 2.9
434.6 K	142.51 ± 2.9
437.4 K	142.74 ± 2.9
440.3 K	142.93 ± 2.9
443.1 K	143.15 ± 2.9
445.8 K	143.38 ± 2.9
448.6 K	143.52 ± 2.9
451.3 K	143.71 ± 2.9
454.1 K	144.09 ± 2.9
456.8 K	144.11 ± 2.9
459.5 K	144.4 ± 2.9
462.2 K	144.65 ± 2.9
464.9 K	144.87 ± 2.9
467.6 K	145.03 ± 2.9
470.3 K	145.2 ± 2.9
473 K	145.33 ± 2.9
475.6 K	145.69 ± 2.9
478.3 K	146.04 ± 2.9
480.9 K	146.21 ± 2.9
483.5 K	146.26 ± 2.9
486.2 K	146.62 ± 2.9
488.8 K	146.64 ± 2.9
491.4 K	146.9 ± 2.9
494 K	147.09 ± 2.9
496.6 K	147.19 ± 2.9
499.2 K	147.37 ± 3
501.8 K	147.62 ± 3
504.4 K	147.87 ± 3
506.9 K	148.03 ± 3
509.5 K	148.01 ± 3
512.1 K	148.31 ± 3
514.7 K	148.51 ± 3
517.2 K	148.78 ± 3
519.8 K	148.72 ± 3
522.4 K	148.99 ± 3
524.9 K	149.11 ± 3
527.5 K	149.23 ± 3
530 K	149.4 ± 3
532.6 K	149.69 ± 3
535.1 K	149.98 ± 3
537.6 K	150.02 ± 3
540.2 K	150.02 ± 3
542.7 K	150.2 ± 3
545.2 K	150.41 ± 3
547.8 K	150.44 ± 3
550.3 K	150.65 ± 3
552.8 K	150.77 ± 3
555.4 K	150.97 ± 3
557.9 K	151.21 ± 3
560.4 K	151.31 ± 3
562.9 K	151.22 ± 3
565.4 K	151.35 ± 3
567.9 K	151.77 ± 3
570.4 K	152.1 ± 3
572.9 K	151.97 ± 3
575.4 K	152.01 ± 3
577.9 K	152.43 ± 3
580.4 K	152.52 ± 3
582.9 K	152.55 ± 3
585.4 K	152.99 ± 3.1
587.9 K	153.06 ± 3.1
590.4 K	153.4 ± 3.1
592.8 K	153.37 ± 3.1
595.3 K	153.54 ± 3.1
597.8 K	153.59 ± 3.1
600.3 K	153.68 ± 3.1
602.8 K	153.91 ± 3.1
605.3 K	153.92 ± 3.1
607.7 K	153.98 ± 3.1
610.2 K	154.22 ± 3.1
612.7 K	154.27 ± 3.1
615.2 K	154.37 ± 3.1
617.6 K	154.5 ± 3.1
620.1 K	154.88 ± 3.1
622.6 K	154.95 ± 3.1
625.1 K	154.9 ± 3.1
627.5 K	155.19 ± 3.1
630 K	155.25 ± 3.1
632.5 K	155.38 ± 3.1
634.9 K	155.28 ± 3.1
637.4 K	155.32 ± 3.1
639.9 K	155.57 ± 3.1
642.3 K	155.79 ± 3.1
644.8 K	156.13 ± 3.1
647.3 K	155.71 ± 3.1
649.7 K	156.15 ± 3.1
652.2 K	156.38 ± 3.1
654.7 K	156.1 ± 3.1
657.1 K	156.18 ± 3.1
659.6 K	156.74 ± 3.1
662.1 K	156.82 ± 3.1
664.5 K	156.91 ± 3.1
667 K	157.05 ± 3.1
669.5 K	157.26 ± 3.1
671.9 K	157.26 ± 3.1
674.4 K	157.34 ± 3.1
676.9 K	157.51 ± 3.1
679.3 K	157.82 ± 3.2
681.8 K	157.78 ± 3.2
684.3 K	157.7 ± 3.1
686.7 K	157.84 ± 3.2
689.2 K	158.11 ± 3.2
691.6 K	158.21 ± 3.2
694.1 K	158.28 ± 3.2
696.6 K	158.3 ± 3.2
699 K	158.66 ± 3.2
701.5 K	158.32 ± 3.2
704 K	158.88 ± 3.2
706.4 K	158.86 ± 3.2
708.9 K	158.73 ± 3.2
711.3 K	159.06 ± 3.2
713.8 K	159.12 ± 3.2
716.3 K	159.23 ± 3.2
718.7 K	159.5 ± 3.2
721.2 K	159.17 ± 3.2
723.7 K	159.42 ± 3.2
726.1 K	159.52 ± 3.2
728.6 K	159.81 ± 3.2
731 K	159.67 ± 3.2
733.5 K	159.82 ± 3.2
736 K	160.19 ± 3.2
738.4 K	160.21 ± 3.2
740.9 K	159.84 ± 3.2
743.4 K	160.74 ± 3.2
745.8 K	160.23 ± 3.2
748.3 K	160.71 ± 3.2
750.8 K	160.51 ± 3.2
753.2 K	160.71 ± 3.2
755.7 K	160.47 ± 3.2
758.1 K	161.09 ± 3.2
760.6 K	160.99 ± 3.2
763.1 K	161.08 ± 3.2
765.5 K	161.21 ± 3.2
768 K	161.19 ± 3.2
770.5 K	161.33 ± 3.2
773 K	161.68 ± 3.2
775.4 K	161.44 ± 3.2
777.9 K	161.42 ± 3.2
780.4 K	161.69 ± 3.2
782.8 K	161.76 ± 3.2
785.3 K	161.68 ± 3.2
787.8 K	161.79 ± 3.2
790.2 K	161.81 ± 3.2
792.7 K	161.94 ± 3.2
795.2 K	162.55 ± 3.2
797.7 K	162.37 ± 3.2
800.1 K	162.27 ± 3.2
802.6 K	162.36 ± 3.2
805.1 K	162.55 ± 3.2
807.5 K	162.68 ± 3.2
810 K	162.67 ± 3.2
812.5 K	162.66 ± 3.2
815 K	162.95 ± 3.3
817.4 K	162.84 ± 3.3
819.9 K	162.94 ± 3.3
822.4 K	163.1 ± 3.3
824.9 K	163.41 ± 3.3
827.3 K	163.19 ± 3.3
829.8 K	163.53 ± 3.3
832.3 K	163.61 ± 3.3
834.8 K	163.59 ± 3.3
837.3 K	163.47 ± 3.3
839.8 K	163.45 ± 3.3
842.2 K	163.53 ± 3.3
844.7 K	163.85 ± 3.3
847.2 K	163.88 ± 3.3
849.6 K	163.86 ± 3.3
852.1 K	163.85 ± 3.3
854.6 K	163.88 ± 3.3
857.1 K	163.9 ± 3.3
859.6 K	164.11 ± 3.3
862.1 K	164.25 ± 3.3
864.6 K	164.33 ± 3.3
867 K	164.11 ± 3.3
869.5 K	164.63 ± 3.3
872 K	164.68 ± 3.3
874.5 K	164.55 ± 3.3
877 K	164.67 ± 3.3
879.5 K	164.73 ± 3.3
881.9 K	165.01 ± 3.3
884.4 K	164.63 ± 3.3
886.9 K	165.15 ± 3.3
889.4 K	164.71 ± 3.3
891.9 K	164.79 ± 3.3
894.4 K	164.9 ± 3.3
896.9 K	165 ± 3.3
899.4 K	165.27 ± 3.3
901.8 K	165.61 ± 3.3
904.3 K	165.53 ± 3.3
906.8 K	165.9 ± 3.3
909.3 K	165.68 ± 3.3
911.8 K	166.05 ± 3.3
914.3 K	165.94 ± 3.3
916.8 K	165.71 ± 3.3
919.3 K	165.93 ± 3.3
921.7 K	165.89 ± 3.3
924.2 K	166.2 ± 3.3
926.7 K	166.37 ± 3.3
929.2 K	166.53 ± 3.3
931.7 K	166.66 ± 3.3
934.2 K	166.07 ± 3.3
936.7 K	166.68 ± 3.3
939.2 K	167.32 ± 3.4
941.7 K	167.41 ± 3.4
944.2 K	167.52 ± 3.4
946.7 K	167.43 ± 3.4
949.2 K	167.53 ± 3.4
951.7 K	167.51 ± 3.4
